The values below come from patent US8785470B2, “Heterocyclic compounds and uses thereof” (Infinity Pharmaceuticals, Inc., priority 2011, dated 2014).

In experiment [1] the target is T1, PI3Kα (Homo sapiens, UniProt P42336).
T1 construct: purchased Millipore Corporation 14-602-K
The experiment can be described thus: PI3-Kinase HTRF assay, PI3Kα. The experiment is classed as biochemical. As to conditions: bins Greater than 10 μM and Greater than 1 μM to 10 μM; 10 μM ATP, PIP2 at 10 μM; read-out: IC50 P13Kα. The essentials: (§1)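 Competitive time-resolved FRET readout of PIP3 formed from 10 μM PIP2 with 10 μM ATP, 1 h at room temperature, by each recombinant human isoform (α, β, γ, δ; 0.25-0.3 μg/ml). Compound (2% DMSO final) was preincubated 15 min with enzyme and substrate; IC50 fitted over 20 μM–0.1 nM, 12 points.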
On the technique in general: Time-resolved FRET reads energy transfer from a long-lived donor to a nearby acceptor.

The subject of experiment [2] is phospho-AKT in RAJI cells (PI3Kδ). The experiment can be described thus: PI3Kδ selective assay, phospho-AKT in RAJI cells. The experiment is classed as cell-based. The conditions noted are these: RAJI cells stimulated with anti-human IgM; read-out: IC50 for phospho-AKT, RAJI cell model. An excerpt:
A compound's ability in selectively inhibiting PI3Kδ can be assessed using RAJI cells, i.e., B lymphocyte cells derived from lymphoma patients. Briefly, serum-starved RAJI cells are stimulated with anti-human IgM, thereby causing signaling through the B-cell receptors, as described in, for example, He et al., Leukemia Research (2009) 33: 798-802. B-cell receptor signaling is important for the activation, differentiation, and survival of B cells and certain B-cell derived cancers. Reduction of phospho-AKT is indicative of compounds that may inhibit B-cell proliferation and function in certain diseases. By monitoring the reduction of phospho-AKT in stimulated RAJI cells (using for example, phospho-AKT antibodies), a compound's potential efficacy in selectively inhibiting PI3Kδ can be assessed.

The test system of experiment [3] is phospho-AKT in RAW 264.7 cells (PI3Kγ). The experiment in a line: PI3Kγ selective assay, phospho-AKT in RAW 264.7 cells. Type of experiment: cell-based. As to conditions: Mus musculus, RAW264.7, stimulated with C5a, read-out: IC50 for phospho-AKT, RAW 264.7 cell model. An excerpt: A compound's ability in selectively inhibiting PI3Kγ can be assessed using RAW264.7 macrophages. Briefly, serum-starved PAW264.7 cells are stimulated with a known GPCR agonist C5a. (See, e.g., Camps et al., Nature Medicine (2005) 11(9): 936-943). Cells can be treated with test compounds prior to, simultaneously with, or subsequent to the stimulation by C5a. RAW 264.7 cells respond to the complement component fragment C5a through activation of the C5a receptor, and the C5a receptor activates macrophages and induces cell migration. Test compounds' ability to inhibit C5a-mediated AKT phosphorylation is indicative of selective inhibition of PI3Kγ. Thus, by monitoring the reduction of phospho-AKT in stimulated RAW 264.7 cells (using for example, phospho-AKT antibodies), a compound's potential efficacy in selectively inhibiting PI3Kγ can be assessed.

Experiment [4] deals with T2, PI3Kβ (Homo sapiens, UniProt P42338).
T2 construct: purchased Millipore Corporation 14-603-K
T2 sequence (P42338 whole entry): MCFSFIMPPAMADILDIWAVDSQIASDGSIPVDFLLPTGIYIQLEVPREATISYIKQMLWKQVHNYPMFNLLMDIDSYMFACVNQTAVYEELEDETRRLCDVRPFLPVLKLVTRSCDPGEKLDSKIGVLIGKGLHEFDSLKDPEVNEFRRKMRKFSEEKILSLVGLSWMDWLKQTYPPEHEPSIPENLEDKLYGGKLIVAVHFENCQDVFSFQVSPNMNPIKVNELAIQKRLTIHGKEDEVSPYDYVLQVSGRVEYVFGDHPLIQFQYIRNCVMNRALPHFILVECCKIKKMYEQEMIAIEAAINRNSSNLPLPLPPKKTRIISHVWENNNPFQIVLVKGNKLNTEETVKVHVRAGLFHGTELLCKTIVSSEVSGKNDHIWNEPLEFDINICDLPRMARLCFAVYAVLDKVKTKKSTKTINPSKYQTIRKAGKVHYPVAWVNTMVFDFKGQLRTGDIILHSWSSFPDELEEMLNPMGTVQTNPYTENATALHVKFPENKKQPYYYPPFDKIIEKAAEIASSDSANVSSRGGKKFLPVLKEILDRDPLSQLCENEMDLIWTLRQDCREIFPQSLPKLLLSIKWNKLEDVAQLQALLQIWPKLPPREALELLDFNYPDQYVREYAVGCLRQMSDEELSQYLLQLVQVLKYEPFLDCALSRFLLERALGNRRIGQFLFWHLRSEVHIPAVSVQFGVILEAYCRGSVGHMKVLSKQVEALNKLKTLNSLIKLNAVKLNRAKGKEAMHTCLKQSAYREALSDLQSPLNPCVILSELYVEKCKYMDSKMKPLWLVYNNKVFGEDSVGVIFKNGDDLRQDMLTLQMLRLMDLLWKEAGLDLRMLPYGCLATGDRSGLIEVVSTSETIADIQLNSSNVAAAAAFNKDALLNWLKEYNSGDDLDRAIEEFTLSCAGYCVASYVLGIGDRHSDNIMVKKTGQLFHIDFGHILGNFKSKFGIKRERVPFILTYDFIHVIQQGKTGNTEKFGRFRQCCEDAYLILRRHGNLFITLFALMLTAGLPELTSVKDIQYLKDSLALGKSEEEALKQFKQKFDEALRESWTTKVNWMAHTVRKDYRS
T2 sequence (P27986 whole entry partner): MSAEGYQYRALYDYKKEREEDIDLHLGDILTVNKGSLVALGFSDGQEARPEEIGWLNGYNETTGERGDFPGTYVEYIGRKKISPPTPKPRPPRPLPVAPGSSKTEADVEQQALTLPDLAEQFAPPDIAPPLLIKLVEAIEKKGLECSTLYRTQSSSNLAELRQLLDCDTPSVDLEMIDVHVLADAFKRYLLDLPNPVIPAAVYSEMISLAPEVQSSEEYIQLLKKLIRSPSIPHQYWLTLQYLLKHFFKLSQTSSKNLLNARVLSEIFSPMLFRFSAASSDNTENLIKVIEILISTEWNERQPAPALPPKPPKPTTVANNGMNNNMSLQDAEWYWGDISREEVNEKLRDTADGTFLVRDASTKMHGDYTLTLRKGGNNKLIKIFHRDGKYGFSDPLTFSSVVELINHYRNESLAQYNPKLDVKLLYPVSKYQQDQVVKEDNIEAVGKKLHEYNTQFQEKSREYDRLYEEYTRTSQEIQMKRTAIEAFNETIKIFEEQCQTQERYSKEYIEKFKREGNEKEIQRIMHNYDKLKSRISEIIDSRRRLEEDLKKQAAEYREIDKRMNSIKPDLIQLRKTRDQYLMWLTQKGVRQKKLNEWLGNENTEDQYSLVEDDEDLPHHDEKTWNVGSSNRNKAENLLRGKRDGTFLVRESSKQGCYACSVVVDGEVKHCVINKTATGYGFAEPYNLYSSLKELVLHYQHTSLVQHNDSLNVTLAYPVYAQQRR
The experiment in a line: PI3-Kinase HTRF assay, PI3Kβ. As to conditions: bins Greater than 10 μM and Greater than 1 μM to 10 μM; 10 μM ATP, PIP2 at 10 μM. Type of experiment: biochemical. In short, it runs like this: as §1

Where [5] appears, read: ranges less than 100 nM and between 100 nM and 1 μM (given as 100-1000).

Like-named read-outs stand apart in the source and are kept apart here. Some results are limits rather than exact numbers.

T1 sequence (P42336 whole entry): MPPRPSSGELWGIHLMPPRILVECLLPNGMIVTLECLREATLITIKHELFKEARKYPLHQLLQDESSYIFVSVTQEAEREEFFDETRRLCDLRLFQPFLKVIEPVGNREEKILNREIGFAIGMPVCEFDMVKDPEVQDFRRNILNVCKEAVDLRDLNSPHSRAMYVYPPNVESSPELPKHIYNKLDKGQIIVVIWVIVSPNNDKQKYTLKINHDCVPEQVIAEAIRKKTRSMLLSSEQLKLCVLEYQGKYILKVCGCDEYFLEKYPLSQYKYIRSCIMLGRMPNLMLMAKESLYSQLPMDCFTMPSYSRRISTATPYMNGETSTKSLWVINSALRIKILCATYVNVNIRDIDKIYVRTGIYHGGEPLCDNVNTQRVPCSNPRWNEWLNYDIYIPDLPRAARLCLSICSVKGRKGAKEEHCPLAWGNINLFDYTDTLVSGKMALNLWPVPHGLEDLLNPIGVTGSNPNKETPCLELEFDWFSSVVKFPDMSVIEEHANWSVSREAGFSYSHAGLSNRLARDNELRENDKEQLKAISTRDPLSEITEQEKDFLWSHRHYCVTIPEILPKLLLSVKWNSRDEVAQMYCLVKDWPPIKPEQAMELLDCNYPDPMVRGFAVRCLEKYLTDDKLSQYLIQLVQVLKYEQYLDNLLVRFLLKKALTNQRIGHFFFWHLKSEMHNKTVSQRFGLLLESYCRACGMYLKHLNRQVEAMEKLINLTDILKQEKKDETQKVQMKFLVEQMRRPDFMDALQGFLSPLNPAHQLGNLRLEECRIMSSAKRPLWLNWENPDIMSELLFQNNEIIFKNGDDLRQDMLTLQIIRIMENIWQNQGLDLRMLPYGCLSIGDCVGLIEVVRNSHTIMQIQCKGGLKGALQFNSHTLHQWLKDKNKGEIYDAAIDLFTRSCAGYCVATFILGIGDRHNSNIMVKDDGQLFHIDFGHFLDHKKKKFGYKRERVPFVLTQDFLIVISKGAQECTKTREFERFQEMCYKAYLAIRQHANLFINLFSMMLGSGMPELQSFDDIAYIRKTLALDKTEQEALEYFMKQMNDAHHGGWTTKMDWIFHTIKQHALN
T1 sequence (P27986 whole entry partner): as the sequence (P27986 whole entry partner) above

By IC50 is commonly meant the point on the concentration scale where inhibition reaches its midpoint. Take `C[C@H](Nc1nc(N)ncc1-c1cccc(NS(C)(=O)=O)c1)c1cc2cccc(Cl)c2c(=O)n1-c1ccccc1` [Compound 399]: the concentration for half-maximal inhibition (IC50) in experiment [1] is 1 to 10 µM; in experiment [2], less than 0.1 µM; in experiment [3] (setting [5]) it was less than 0.1 µM; in experiment [4], 1 to 10 µM.

With `C[C@H](Nc1nc(N)ncc1-c1cccc(N(C)S(C)(=O)=O)c1)c1cc2cccc(Cl)c2c(=O)n1-c1ccccc1` [Compound 408], the half-inhibitory concentration (IC50) is 1 to 10 µM in experiment [1], less than 0.1 µM in experiment [2], less than 0.1 µM in experiment [3] (setting [5]) and 1 to 10 µM in experiment [4].

`C[C@H](Nc1nc(N)ncc1-c1cccc(S(=O)(=O)C2CC2)c1)c1cc2cccc(Cl)c2c(=O)n1-c1ccccc1` [Compound 417]: the IC50 in experiment [1] was 1 to 10 µM; in experiment [2], less than 0.1 µM; in experiment [3] (setting [5]), less than 0.1 µM; in experiment [4], 1 to 10 µM.

Turning to `C[C@H](Nc1nc(N)ncc1-c1cccc(S(N)(=O)=O)c1)c1cc2cccc(Cl)c2c(=O)n1-c1ccccc1` [Compound 414], the IC50 in experiment [1] was 1 to 10 µM; in experiment [2], less than 0.1 µM; in experiment [3] (setting [5]), less than 0.1 µM.

With `COc1ccc(-c2cnc(N)nc2N[C@@H](C)c2cc3cccc(Cl)c3c(=O)n2-c2ccccc2)cn1` [Compound 383], the IC50 in experiment [1] was 1 to 10 µM; in experiment [2] it was less than 0.1 µM; in experiment [3] (setting [5]) it was less than 0.1 µM.

`C[C@H](Nc1nc(N)ncc1-c1cccc(S(=O)(=O)N(C)C)c1)c1cc2cccc(Cl)c2c(=O)n1-c1ccccc1` [Compound 413]: the half-maximal inhibitory concentration (IC50) in experiment [2] and in experiment [3] (setting [5]) was less than 0.1 µM each time.

For `COc1ncc(-c2cccc3cc([C@H](C)Nc4nc(N)ncc4C#N)n(C(C)C)c(=O)c23)cn1` [Compound 327], the IC50 in experiment [1] was 1 to 10 µM; in experiment [2], less than 0.1 µM; in experiment [3] (setting [5]), 0.1 to 1 µM.

As for `C[C@H](Nc1nc(N)ncc1-c1cnc(S(C)(=O)=O)s1)c1cc2cccc(Cl)c2c(=O)n1-c1ccccc1` [Compound 403], the 50% inhibitory concentration (IC50) in experiment [2] was less than 0.1 µM; in experiment [3] (setting [5]), less than 0.1 µM; in experiment [4] it was 1 to 10 µM.

For `CC(C)n1c([C@H](C)Nc2ncnc(N)c2C#N)cc2cccc(Cl)c2c1=O` [Compound 329], the IC50 in experiment [1] was 1 to 10 µM; in experiment [2] it was less than 0.1 µM; in experiment [3] (setting [5]) it was 0.1 to 1 µM; in experiment [4] it was 1 to 10 µM.

For `CCS(=O)(=O)c1cccc(-c2cnc(N)nc2N[C@@H](C)c2cc3cccc(Cl)c3c(=O)n2-c2ccccc2)c1` [Compound 416], the values for the half-inhibitory concentration (IC50) in experiment [1], in experiment [2] and in experiment [3] (setting [5]) were 1 to 10 µM, less than 0.1 µM and less than 0.1 µM, respectively.

`COc1ncc(-c2cccc3cc([C@H](C)Nc4ncnc(N)c4C#N)n(-c4ccccc4)c(=O)c23)cn1` [Compound 356]: the half-inhibitory concentration (IC50) in experiment [2] is less than 0.1 µM; in experiment [3] (setting [5]) it was 0.1 to 1 µM.

Consider `C=CS(=O)(=O)Nc1cccc(-c2cnc(N)nc2N[C@@H](C)c2cc3cccc(Cl)c3c(=O)n2-c2ccccc2)c1` [Compound 415], for which the IC50 in experiment [2] and in experiment [3] (setting [5]) was less than 0.1 µM each time.

Consider `C[C@H](Nc1nc(N)ncc1-c1cccc(S(C)(=O)=O)c1)c1cc2cccc(C(F)(F)F)c2c(=O)n1-c1ccccc1` [Compound 428], for which the IC50 is 1 to 10 µM in experiment [1], less than 0.1 µM in experiment [2], less than 0.1 µM in experiment [3] (setting [5]) and 1 to 10 µM in experiment [4].

Take `C[C@H](Nc1nc(N)ncc1-c1cccc(S(C)(=O)=O)c1)c1cc2cccc(Cl)c2c(=O)n1-c1ccccc1` [Compound 397]: the half-inhibitory concentration (IC50) in experiment [1] is 1 to 10 µM; in experiment [2] it was less than 0.1 µM; in experiment [3] (setting [5]), less than 0.1 µM; in experiment [4], 1 to 10 µM.

In the case of `Cc1ccc(NS(C)(=O)=O)cc1-c1cnc(N)nc1N[C@@H](C)c1cc2cccc(Cl)c2c(=O)n1-c1ccccc1` [Compound 412], the half-inhibitory concentration (IC50) was less than 0.1 µM in experiment [2], less than 0.1 µM in experiment [3] (setting [5]) and 1 to 10 µM in experiment [4].

As to `CC(=O)c1cnc(N)nc1N[C@@H](C)c1cc2cccc(Cl)c2c(=O)n1-c1ccccc1` [Compound 394], the IC50 in experiment [2] and in experiment [3] (setting [5]) was less than 0.1 µM in each case.

For the compound `COc1cccc(-n2c([C@H](C)Nc3nc(N)ncc3C#N)cc3cccc(Cl)c3c2=O)c1` [Compound 288], the half-inhibitory concentration (IC50) in experiment [2] was less than 0.1 µM; in experiment [3] (setting [5]), less than 0.1 µM; in experiment [4] it was 1 to 10 µM.

As to `COc1ncc(-c2cnc(N)nc2N[C@@H](C)c2cc3cccc(Cl)c3c(=O)n2-c2ccccc2)s1` [Compound 382], the IC50 in experiment [2] was less than 0.1 µM; in experiment [3] (setting [5]), less than 0.1 µM; in experiment [4] it was 1 to 10 µM.

Regarding `Cc1ncc(-c2cccc3cc([C@H](C)Nc4ncnc(N)c4C#N)n(-c4ccon4)c(=O)c23)cn1` [Compound 336], the half-maximal inhibitory concentration (IC50) in experiment [2] was less than 0.1 µM; in experiment [3] (range between 1 μM and 10 μM), 1 to 10 µM.

As to `C[C@H](Nc1nc(N)ncc1C#N)c1cc2cccc(Cl)c2c(=O)n1-c1cccc(C#N)c1` [Compound 285], the IC50 in experiment [1] is 1 to 10 µM; in experiment [2] it was less than 0.1 µM; in experiment [3] (setting [5]) it was less than 0.1 µM.

Regarding `C[C@H](Nc1nc(N)ncc1-c1cccc(NS(=O)(=O)N(C)C)c1)c1cc2cccc(Cl)c2c(=O)n1-c1ccccc1` [Compound 410], the IC50 in experiment [2] and in experiment [3] (setting [5]) was less than 0.1 µM in each case.

On to `C[C@H](Nc1nc(N)ncc1-c1cccc(S(=O)(=O)N2CCCCC2)c1)c1cc2cccc(Cl)c2c(=O)n1-c1ccccc1` [Compound 157], for which the concentration for half-maximal inhibition (IC50) in experiment [2] and in experiment [3] (setting [5]) was less than 0.1 µM in each case.

For the compound `C[C@H](Nc1nc(N)ncc1-c1cccc(S(=O)(=O)N2CCCC2)c1)c1cc2cccc(Cl)c2c(=O)n1-c1ccccc1` [Compound 419], the half-inhibitory concentration (IC50) in experiment [2] and in experiment [3] (setting [5]) was less than 0.1 µM throughout.

As for `COc1cc(-c2cccc3cc(CNc4nc(N)ncc4C#N)n(-c4ccccc4)c(=O)c23)ccn1` [Compound 242], the values for the half-maximal inhibitory concentration (IC50) in experiment [2] and in experiment [3] (setting [5]) were less than 0.1 µM and 0.1 to 1 µM, respectively.

`N#Cc1cnc(N)nc1NCc1cc2cccc(Cl)c2c(=O)n1-c1ccccc1` [Compound 241]: the IC50 in experiment [1] is 1 to 10 µM; in experiment [2] it was less than 0.1 µM; in experiment [3] (setting [5]), less than 0.1 µM; in experiment [4], 1 to 10 µM.

In the case of `C[C@H](Nc1ncncc1-c1cccc(S(=O)(=O)N(C)C)c1)c1cc2cccc(Cl)c2c(=O)n1-c1ccccc1` [Compound 422], the values for the half-inhibitory concentration (IC50) in experiment [1], in experiment [2] and in experiment [3] (setting [5]) were 1 to 10 µM, less than 0.1 µM and less than 0.1 µM, respectively.

For the compound `CC(C)C(=O)c1cnc(N)nc1N[C@@H](C)c1cc2cccc(Cl)c2c(=O)n1-c1ccccc1` [Compound 424], the IC50 is 1 to 10 µM in experiment [1], less than 0.1 µM in experiment [2] and 0.1 to 1 µM in experiment [3] (setting [5]).

Take `CCOc1nc(-c2cnc(N)nc2N[C@@H](C)c2cc3cccc(-c4cnc(OC)nc4)c3c(=O)n2-c2ccccc2)cs1` [Compound 396]: the 50% inhibitory concentration (IC50) was 1 to 10 µM in experiment [1], less than 0.1 µM in experiment [2], 0.1 to 1 µM in experiment [3] (setting [5]) and 1 to 10 µM in experiment [4].

For the compound `C[C@H](Nc1nc(N)ncc1-c1cscn1)c1cc2cccc(-c3ccc(=O)n(C)c3)c2c(=O)n1-c1ccccc1` [Compound 393], the half-inhibitory concentration (IC50) in experiment [2] was less than 0.1 µM; in experiment [3] (setting [5]), 0.1 to 1 µM.

Turning to `C[C@H](Nc1nc(N)ncc1-c1ccoc1)c1cc2cccc(Cl)c2c(=O)n1-c1ccccc1` [Compound 379], the IC50 in experiment [2] and in experiment [3] (setting [5]) was less than 0.1 µM throughout.

`CC(C)OC(=O)c1cccc(-n2c([C@H](C)Nc3nc(N)ncc3C#N)cc3cccc(Cl)c3c2=O)c1` [Compound 312]: the IC50 in experiment [2] was less than 0.1 µM; in experiment [3] (setting [5]) it was 0.1 to 1 µM.

Turning to `CNS(=O)(=O)c1cccc(-c2cnc(N)nc2N[C@@H](C)c2cc3cccc(Cl)c3c(=O)n2-c2ccccc2)c1` [Compound 418], the figures for the IC50 in experiment [1], in experiment [2] and in experiment [3] (setting [5]) were 1 to 10 µM, less than 0.1 µM and less than 0.1 µM, respectively.

As to `C[C@H](Nc1nc(N)ncc1-c1cn[nH]c1)c1cc2cccc(Cl)c2c(=O)n1-c1ccccc1` [Compound 378], the IC50 in experiment [2] was less than 0.1 µM; in experiment [3] (setting [5]), 0.1 to 1 µM.
